Measured values: ChEMBL document CHEMBL5674873, “Expression and inhibition of BRD4, EZH2 and TOP2A in neurofibromas and malignant peripheral nerve sheath tumors” (PLoS One, 2017)

Experiments:
Type in all cases: cell-based
[1] = target: T1, Bromodomain-containing protein 4 (Homo sapiens, UniProt O60885); settings: sts-26t
Description: Inhibition of BRD4 in human STS-26T cells assessed as reduction in cell viability at 4.9 to 2500 nM incubated for 72 hrs by SRB assay

[2] = target: T1, Bromodomain-containing protein 4; experiment: Inhibition of BRD4 in human ST88-14 cells assessed as reduction in cell viability at 4.9 to 2500 nM incubated for 72 hrs by SRB assay
[3] = target: T1, Bromodomain-containing protein 4; experiment: Inhibition of BRD4 in human HS53T cells assessed as reduction in cell viability at 4.9 to 2500 nM incubated for 72 hrs by SRB assay
[4] = target: DNA topoisomerase 2-alpha (Homo sapiens, UniProt P11388); experiment: Inhibition of TOP2A in human HS53T cells assessed as reduction in cell viability at 1 to 500 ng/ml incubated for 72 hrs by SRB assay
DNA topoisomerase 2-alpha, sequence (P11388 whole entry): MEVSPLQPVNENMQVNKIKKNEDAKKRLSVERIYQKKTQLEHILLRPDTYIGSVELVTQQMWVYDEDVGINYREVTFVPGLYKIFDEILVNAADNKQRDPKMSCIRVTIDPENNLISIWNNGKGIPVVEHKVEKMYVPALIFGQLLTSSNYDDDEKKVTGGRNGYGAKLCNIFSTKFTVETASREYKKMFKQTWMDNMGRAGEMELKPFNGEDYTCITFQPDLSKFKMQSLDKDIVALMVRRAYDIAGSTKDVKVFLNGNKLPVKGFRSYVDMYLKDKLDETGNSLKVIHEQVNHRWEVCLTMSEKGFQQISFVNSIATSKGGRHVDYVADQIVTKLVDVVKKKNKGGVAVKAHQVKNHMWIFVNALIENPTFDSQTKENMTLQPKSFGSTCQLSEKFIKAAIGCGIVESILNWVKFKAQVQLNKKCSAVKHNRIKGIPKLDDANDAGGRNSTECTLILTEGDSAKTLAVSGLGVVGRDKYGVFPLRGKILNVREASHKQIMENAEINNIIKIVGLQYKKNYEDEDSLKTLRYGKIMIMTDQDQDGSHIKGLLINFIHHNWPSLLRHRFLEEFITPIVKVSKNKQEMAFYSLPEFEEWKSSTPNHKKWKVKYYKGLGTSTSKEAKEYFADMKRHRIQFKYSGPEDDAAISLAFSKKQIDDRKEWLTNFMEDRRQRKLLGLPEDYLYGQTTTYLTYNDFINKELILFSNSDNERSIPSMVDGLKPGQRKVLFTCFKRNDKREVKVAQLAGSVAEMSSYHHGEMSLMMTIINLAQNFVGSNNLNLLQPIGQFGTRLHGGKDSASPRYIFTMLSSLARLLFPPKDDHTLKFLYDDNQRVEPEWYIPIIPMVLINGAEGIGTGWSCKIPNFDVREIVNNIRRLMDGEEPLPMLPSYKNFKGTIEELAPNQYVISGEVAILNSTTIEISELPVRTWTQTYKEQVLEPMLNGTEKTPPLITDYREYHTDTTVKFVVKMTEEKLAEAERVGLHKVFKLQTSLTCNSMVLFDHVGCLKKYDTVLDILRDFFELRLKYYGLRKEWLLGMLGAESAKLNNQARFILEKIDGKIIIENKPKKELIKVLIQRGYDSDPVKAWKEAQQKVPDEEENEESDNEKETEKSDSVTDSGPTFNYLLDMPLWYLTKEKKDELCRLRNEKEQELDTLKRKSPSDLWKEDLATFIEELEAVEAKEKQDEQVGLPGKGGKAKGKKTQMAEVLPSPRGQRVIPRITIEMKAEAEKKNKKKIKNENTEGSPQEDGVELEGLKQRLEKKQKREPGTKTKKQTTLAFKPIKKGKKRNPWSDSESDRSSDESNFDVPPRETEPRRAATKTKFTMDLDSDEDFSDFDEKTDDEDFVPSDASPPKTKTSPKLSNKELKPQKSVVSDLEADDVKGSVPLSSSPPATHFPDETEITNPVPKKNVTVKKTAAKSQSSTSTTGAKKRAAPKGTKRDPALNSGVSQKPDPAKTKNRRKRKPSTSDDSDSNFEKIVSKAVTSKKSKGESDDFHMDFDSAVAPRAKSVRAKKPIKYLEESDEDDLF

Compound: Cc1sc2c(c1C)C(c1ccc(Cl)cc1)=N[C@@H](CC(=O)OC(C)(C)C)c1nnc(C)n1-2
- IC50 [1]: Not Active
- IC50 [2]: Not Active
- IC50 [3]: Not Active

Compound: COc1cccc2c1C(=O)c1c(O)c3c(c(O)c1C2=O)C[C@@](O)(C(=O)CO)C[C@@H]3O[C@H]1C[C@H](N)[C@H](O)[C@H](C)O1 [DOXORUBICIN]
- IC50 [4]: Not Active
